According to ChEMBL document CHEMBL4699496, “Exploring efficacy of natural-derived acetylphenol scaffold inhibitors for α-glucosidase: Synthesis, in vitro and in vivo biochemical studies” (Bioorg Med Chem Lett, 2020):
Active and inactive are the calls of the source. The calls are words filed in the database; no cut-off is given here.

How the values were obtained:
[1] = species on record: Mus musculus; assay: Hypoglycemic activity in Kunming mouse assessed as reduction in maltose-induced postprandial blood glucose level measured after 15 to 120 mins by maltose loading test; assay type: functional, organism-based; conditions: time min 15-120
[2] = Inhibition of alpha-glucosidase (unknown origin); set-up: species or system Homo sapiens; conditions: read-out: IC50
[3] = species on record: Rattus norvegicus; assay: Inhibition of alpha-glucosidase in rat everted intestinal sleeves assessed as reduction in glucose concentration outside of the intestinal sleeves at 0.5 mM measured after 5 to 90 mins; assay type: tissue-based; conditions: Intestine, time min 5-90
[4] = species on record: Rattus norvegicus; assay: Inhibition of alpha-glucosidase in rat everted intestinal sleeves assessed as reduction in blood glucose AUC (0-90) within intestinal sleeves at 0.5 mM; assay type: tissue-based; conditions: Intestine, time min 0-90
[5] = species on record: Rattus norvegicus; assay: Inhibition of alpha-glucosidase in rat everted intestinal sleeves assessed as reduction in glucose concentration within intestinal sleeves at 0.5 mM measured for 5 to 90 mins; assay type: tissue-based; conditions: Intestine, time min 5-90
[6] = species on record: Mus musculus; assay: Hypoglycemic activity in Kunming mouse assessed as reduction in maltose-induced blood glucose AUC (0 to 120 mins) by maltose loading test; assay type: functional, organism-based; conditions: time min 0-120
[7] = species on record: Rattus norvegicus; assay: Inhibition of alpha-glucosidase in rat everted intestinal sleeves assessed as reduction in blood glucose AUC (0-90) outside of the intestinal sleeves at 0.5 mM; assay type: tissue-based; conditions: Intestine, time min 0-90
[8] = species on record: Homo sapiens; assay: Binding affinity to alpha-glucosidase (unknown origin) assessed as hydrophobic interactions by measuring change in enthalpy at 304 K by Van't Hoff equation analysis
[9] = species on record: Homo sapiens; assay: Binding affinity to alpha-glucosidase (unknown origin) assessed as Stern-Volmer quenching constant at 298 K
[10] = species on record: Homo sapiens; assay: Binding affinity to alpha-glucosidase (unknown origin) assessed as binding constant at 304 K
[11] = species on record: Homo sapiens; assay: Binding affinity to alpha-glucosidase (unknown origin) assessed as binding constant at 310 K
[12] = species on record: Homo sapiens; assay: Binding affinity to alpha-glucosidase (unknown origin) assessed as change in gibbs free energy at 310 K by Van't Hoff equation analysis
[13] = species on record: Rattus norvegicus; assay: Inhibition of alpha-glucosidase in rat everted intestinal sleeves assessed as reduction in glucose concentration outside of the intestinal sleeves at 0.173 mM measured after 5 to 90 mins; assay type: tissue-based; conditions: Intestine, time min 5-90
[14] = species on record: Homo sapiens; assay: Binding affinity to alpha-glucosidase (unknown origin) assessed as fluorescence quenching at 0.33 to 3.66 uM by fluorescence spectral analysis; conditions: dose microM 0.33-3.66
[15] = species on record: Homo sapiens; assay: Binding affinity to alpha-glucosidase (unknown origin) assessed as decrease in fluorescence intensity of Trp residue without shift in maximum emission wavelength at 0.33-3.22 uM by fluorescence based Synchronous fluorescence spectroscopy; conditions: dose microM 0.33-3.22
[16] = species on record: Homo sapiens; assay: Binding affinity to alpha-glucosidase (unknown origin) assessed as Stern-Volmer quenching constant at 304 K
[17] = species on record: Homo sapiens; assay: Binding affinity to alpha-glucosidase (unknown origin) assessed as Stern-Volmer quenching constant at 310 K
[18] = species on record: Homo sapiens; assay: Binding affinity to alpha-glucosidase (unknown origin) assessed as enzyme complexation with compound by measuring mean height of enzyme at 2.5 uM by atomic force microscopy (reference value: 0.87 nm)
[19] = species on record: Rattus norvegicus; assay: Inhibition of alpha-glucosidase in rat everted intestinal sleeves assessed as reduction in blood glucose AUC (0-90) within intestinal sleeves at 0.173 mM; assay type: tissue-based; conditions: Intestine, time min 0-90
[20] = species on record: Rattus norvegicus; assay: Inhibition of alpha-glucosidase in rat everted intestinal sleeves assessed as reduction in blood glucose AUC (0-90) outside of the intestinal sleeves at 0.173 mM; assay type: tissue-based; conditions: Intestine, time min 0-90
[21] = species on record: Homo sapiens; assay: Binding affinity to alpha-glucosidase (unknown origin) assessed as quenching constant at 298 K
[22] = species on record: Rattus norvegicus; assay: Inhibition of alpha-glucosidase in rat everted intestinal sleeves assessed as reduction in glucose concentration within intestinal sleeves at 0.173 mM measured for 5 to 90 mins; assay type: tissue-based; conditions: Intestine, time min 5-90
[23] = species on record: Homo sapiens; assay: Binding affinity to alpha-glucosidase (unknown origin) assessed as binding constant at 298 K
[24] = species on record: Homo sapiens; assay: Binding affinity to alpha-glucosidase (unknown origin) assessed as quenching constant at 310 K
[25] = species on record: Homo sapiens; assay: Binding affinity to alpha-glucosidase (unknown origin) assessed as change in the microenvironment of tyrosine and tryptophan residues at 0.33 to 3.32 uM by fluorescence based Synchronous fluorescence spectroscopy; conditions: dose microM 0.33-3.32
[26] = species on record: Homo sapiens; assay: Binding affinity to alpha-glucosidase (unknown origin) assessed as change in gibbs free energy at 304 K by Van't Hoff equation analysis
[27] = species on record: Homo sapiens; assay: Binding affinity to alpha-glucosidase (unknown origin) assessed as hydrogen bonding interactions by measuring change in entropy at 304 K by Van't Hoff equation analysis
[28] = species on record: Homo sapiens; assay: Binding affinity to alpha-glucosidase (unknown origin) assessed as enzyme complexation with compound at 2.5 uM by measuring mean width of enzyme by atomic force microscopy (reference value: 28.35 nm)
[29] = species on record: Homo sapiens; assay: Non-competitive inhibition of alpha-glucosidase (unknown origin) assessed as decrease in Vmax with constant Km at 0.0 to 2.5 uM using p-NPG as substrate by Lineweaver-Burk plot analysis; conditions: dose microM 0.0-2.5
[30] = species on record: Homo sapiens; assay: Binding affinity to alpha-glucosidase (unknown origin) assessed as destabilization of enzyme conformation by measuring induction of protein aggregation at 2.5 uM by atomic force microscopy
[31] = species on record: Homo sapiens; assay: Binding affinity to alpha-glucosidase (unknown origin) assessed as decrease in fluorescence intensity of Tyr residue without shift in maximum emission wavelength at 0.33 to 3.22 uM by fluorescence based Synchronous fluorescence spectroscopy; conditions: dose microM 0.33-3.22
[32] = species on record: Homo sapiens; assay: Binding affinity to alpha-glucosidase (unknown origin) assessed as quenching constant at 304 K
[33] = species on record: Homo sapiens; assay: Binding affinity to alpha-glucosidase (unknown origin) assessed as change in gibbs free energy at 298 K by Van't Hoff equation analysis
[34] = Binding affinity to alpha-glcosidase (unknown origin) using p-NPG as substrate; set-up: species or system Homo sapiens
[35] = species on record: Homo sapiens; assay: Binding affinity to alpha-glucosidase (unknown origin) assessed as change in the microenvironment of tryptophan residue by measuring blue shift at 0.16 to 1.66 uM by fluorescence based Synchronous fluorescence spectroscopy; conditions: dose microM 0.16-1.66
[36] = species on record: Homo sapiens; assay: Binding affinity to alpha-glucosidase (unknown origin) assessed as decrease in fluorescence intensity of Tyr residue without shift in maximum emission wavelength at 0.16 to 1.66 uM by fluorescence based Synchronous fluorescence spectroscopy; conditions: dose microM 0.16-1.66
[37] = species on record: Homo sapiens; assay: Binding affinity to alpha-glucosidase (unknown origin) assessed as change in the microenvironment of tyrosine residue by measuring red shift at 0.16 to 1.66 uM by fluorescence based Synchronous fluorescence spectroscopy; conditions: dose microM 0.16-1.66
[38] = species on record: Homo sapiens; assay: Binding affinity to alpha-glucosidase (unknown origin) assessed as fluorescence quenching at 0.16 to 1.83 uM by fluorescence spectral analysis; conditions: dose microM 0.16-1.83
[39] = species on record: Homo sapiens; assay: Binding affinity to alpha-glucosidase (unknown origin) assessed as decrease in fluorescence intensity at 0.16-1.66 uM by fluorescence based Synchronous fluorescence spectroscopy; conditions: dose microM 0.16-1.66
[40] = species on record: Homo sapiens; assay: Non-competitive inhibition of alpha-glucosidase (unknown origin) assessed as decrease in Vmax with constant Km at 0.0 to 0.92 uM using p-NPG as substrate by Lineweaver-Burk plot analysis; conditions: dose microM 0.0-0.92

Row | SMILES | Activity [1] | IC50 [2] | Activity [6] | deltaH [8] | KSV [9] | Ka [10] | Ka [11] | deltaG [12] | inhibition [13] | KSV [16] | KSV [17] | Activity [18] | inhibition [19] | inhibition [20] | Kq [21] | inhibition [22] | Ka [23] | Kq [24] | deltaG [26] | deltaS [27] | other results
1 | C[C@H]1O[C@H](O[C@H]2[C@H](O)[C@@H](O)[C@@H](O[C@H]3[C@H](O)[C@@H](O)C(O)O[C@@H]3CO)O[C@@H]2CO)[C@H](O)[C@@H](O)[C@@H]1N[C@H]1C=C(CO)[C@@H](O)[C@H](O)[C@H]1O (stereo partly drawn) [ACARBOSE] | Active | 57000 nM | Active |  |  |  |  |  |  |  |  |  |  |  |  |  |  |  |  |  | inhibition [3]: Active; inhibition [4]: Active; inhibition [5]: Active; inhibition [7]: Active
2 | CCCCCCCC(=O)c1cc(C)c(OC(=O)CI)cc1O | Dose-dependent effect | 1690 nM | Active | -1.02 kcal/mol | 2.27 10^4L/mol | 1.34 10^4L/mol | 1.3 10^4L/mol | -4.36 kcal/mol | Active | 1.95 10^4L/mol | 1.64 10^4L/mol | 0.75 nm | Active | Active | 2.27 10^12L/mol/s | Active | 1.39 10^4L/mol | 1.64 10^12L/mol/s | -4.29 kcal/mol | 45 J/mol/K | Activity [14]: Active; Activity [15]: Active; Activity [25]: inactive; Activity [28]: 47.5 nm; inhibition [29]: Active; Activity [30]: Active; Activity [31]: inactive; Kq [32]: 1.95 10^12L/mol/s; deltaG [33]: -4.23 kcal/mol; Ki [34]: 1620 nM
3 | Cc1cc(C(=O)C(C)C)c(O)c(Br)c1OC(=O)CI | Dose-dependent effect | 570 nM | Active | -4.67 kcal/mol | 2.98 10^4L/mol | 1.45 10^4L/mol | 1.36 10^4L/mol | -8.89 kcal/mol | Active | 2.59 10^4L/mol | 2.24 10^4L/mol | 3.97 nm | Active | Active | 2.98 10^12L/mol/s | Active | 1.56 10^4L/mol | 2.24 10^12L/mol/s | -8.81 kcal/mol | 57 J/mol/K | Activity [35]: Active; Activity [36]: inactive; Activity [37]: Active; Activity [38]: Active; Activity [28]: 29.6 nm; Activity [30]: Active; Activity [39]: Active; Kq [32]: 2.59 10^12L/mol/s; deltaG [33]: -8.73 kcal/mol; inhibition [40]: Active; Ki [34]: 650 nM
